Experimental data reported in a compilation of properties of binary mixtures (doi:10.1021/acs.jpcb.9b04724).

Experiment: xn = mol fraction of the nth substance listed
Conditions: 101 kPa

CC[n+]1ccn(C)c1.N#C[N-]C#N + CCCC[N+](C)(CCCC)CCCC.N#C[N-]C#N
x1 = 1
Conditions	viscosity [mPa·s]
293.15 K	17.41
313.15 K	10.05
333.15 K	6.65

CCCC[N+](C)(CCCC)CCCC.N#C[N-]C#N + CC[n+]1ccn(C)c1.N#C[N-]C#N
viscosity [mPa·s]
Conditions	293.15 K	303.15 K	313.15 K	323.15 K	333.15 K	343.15 K	353.15 K
x2 = 0	498	239	127.3	74.9	47.6	32	22.6
x2 = 0.2114	201	–	65.2	42.1	28.7	–	–
x2 = 0.3975	101.3	60.6	39.2	26.8	–	14.44	–
x2 = 0.6047	50.5	–	22.87	16.69	12.65	10.13	8.18
x2 = 0.8003	28.3	19.8	14.56	11.15	9.11	7.26	5.93
